Results as given in EP0326329B1, “Quinazoline derivatives useful as insecticides” (Dow AgroSciences LLC, priority 1988, dated 1989).

Experiments:
Assay type in all cases: in vivo
[1] = tested on: Puccinia recondita tritici (leaf rust); assay: Greenhouse Test 1, foliar spray fungicide screen (LEAF RUST), host wheat; settings: disease control rating, 400 ppm (+++ at 100 ppm)
[2] = tested on: Southern corn rootworm (Diabrotica undecimpuctata howardi Barber); assay: Mite/insect screen, soil treatment (CRW); settings: Diabrotica, percent mortality, soil treatment, read-out: CRW RESULTS %; for mortality at 24 ppm: CRW rate 24.00 ppm; for mortality at 12 ppm: CRW rate 12.00 ppm
Procedure, shortened: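 Five 2–3 instar larvae were placed on dry sandy soil with a presoaked corn seed after the soil had received 1 mL of compound solution and dried 6–12 h; cups were kept capped at 23°C. Mortality (%) and phytotoxicity were read after standard exposure. Formulation: acetone/alcohol with emulsifiers, water-diluted.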

[3] = tested on: Pseudoperonospora cubensis (downy mildew); assay: Greenhouse Test 1, foliar spray fungicide screen (DOWN MDEW), host squash; settings: disease control rating, 400 ppm (+++ at 100 ppm)
[4] = tested on: Twospotted spider mites (Tetranychus urticae Koch); assay: Mite/insect screen, sprayed squash cotyledons (SM); settings: Tetranychus urticae, percent mortality, read-out: SM RESULTS %; for mortality at 400 ppm: spray rate 400 ppm; for mortality at 200 ppm: spray rate 200 ppm
Procedure, shortened: (§1)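 Compounds were dissolved in 50:50 acetone/alcohol containing sulfonate/nonionic emulsifier blends (23 g and 13 g per liter) and diluted with water to test concentrations. Leaves were sprayed on both surfaces to runoff and dried for one hour. Percent mortality and phytotoxicity were scored after standard exposure periods.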

[5] = tested on: Botrytis cinerea (gray mold); assay: Greenhouse Test 1, foliar spray fungicide screen (GRAY MOLD), host grape berries; settings: disease control rating, 400 ppm (+++ at 100 ppm)
[6] = tested on: Erysiphe graminis tritici (powdery mildew); assay: Greenhouse Test 1, foliar spray fungicide screen (POWD MDEW), host wheat; settings: disease control rating, 400 ppm (+++ at 100 ppm)
[7] = tested on: Pyricularia oryzae (rice blast); settings: disease control rating, foliar spray, host rice; 400 ppm (+++ at 100 ppm)
[8] = tested on: melon aphids (Aphis gossypii Glover); assay: Mite/insect screen, sprayed squash cotyledons (MA); settings: Aphis gossypii, percent mortality, read-out: MA RESULTS %; for mortality at 400 ppm: spray rate 400 ppm; for mortality at 200 ppm: spray rate 200 ppm
Procedure, shortened: as §1

[9] = tested on: southern armyworm (Spodopetra eridania Cramer); assay: Mite/insect screen, sprayed squash leaves (SAW); settings: Spodoptera eridania, percent mortality, read-out: SAW RESULTS %; for mortality at 400 ppm: spray rate 400 ppm; for mortality at 200 ppm: spray rate 200 ppm
Procedure, shortened: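 Steps: formulate compound in acetone/alcohol 50:50 carrying emulsifiers; dilute with water; spray leaves until runoff on upper and lower surfaces; air-dry one hour; for armyworm, excise two […] leaves into a dish of larvae; after exposure, score mortality and plant injury.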

## c1ccc2cc(CCOc3ncnc4ccccc34)ccc2c1 [Example 80, 4-[2-(2-naphthyl)ethoxy]quinazoline]
[1]
  LEAF RUST: +++ (+++ = 90-100% control at 100 ppm)
[2]
  mortality at 24 ppm: 100%
[3]
  DOWN MDEW: +++ (+++ = 90-100% control at 100 ppm)
[4]
  mortality at 400 ppm: 100%
[5]
  GRAY MOLD: - (- = 0-19% control at 400 ppm)
[6]
  POWD MDEW: +++ (+++ = 90-100% control at 100 ppm)
[7]
  RICE BLAST: +++ (+++ = 90-100% control at 100 ppm)
[8]
  mortality at 400 ppm: 100%
[9]
  mortality at 400 ppm: 0%

## Fc1cccc2c(OCCCc3ccc(Oc4ccccc4)cc3)ncnc12 [Example 119, 8-fluoro-4-[3-(4-phenoxyphenyl)propoxy]quinazoline]
[1]
  LEAF RUST: + (+ = 20-89% control at 400 ppm)
[2]
  mortality at 12 ppm: 0%
  mortality at 24 ppm: 0%
[3]
  DOWN MDEW: - (- = 0-19% control at 400 ppm)
[4]
  mortality at 200 ppm: 50%
  mortality at 400 ppm: 0%
[5]
  GRAY MOLD: - (- = 0-19% control at 400 ppm)
[6]
  POWD MDEW: + (+ = 20-89% control at 400 ppm)
[7]
  RICE BLAST: ++ (++ = 90-100% control at 400 ppm)
[8]
  mortality at 200 ppm: 80%
  mortality at 400 ppm: 0%
[9]
  mortality at 200 ppm: 0%
  mortality at 400 ppm: 90%

## Cc1cccc2ncnc(NCCc3ccc(Cl)cc3)c12 [Example 36, N-[2-(4-chlorophenyl)ethyl]-5-methyl-4-quinazolinamine]
[1]
  LEAF RUST: - (- = 0-19% control at 400 ppm)
[2]
  mortality at 12 ppm: 0%
  mortality at 24 ppm: 0%
[3]
  DOWN MDEW: + (+ = 20-89% control at 400 ppm)
[4]
  mortality at 200 ppm: 0%
  mortality at 400 ppm: 0%
[5]
  GRAY MOLD: - (- = 0-19% control at 400 ppm)
[6]
  POWD MDEW: - (- = 0-19% control at 400 ppm)
[7]
  RICE BLAST: + (+ = 20-89% control at 400 ppm)
[8]
  mortality at 200 ppm: 0%
  mortality at 400 ppm: 0%
[9]
  mortality at 200 ppm: 0%
  mortality at 400 ppm: 0%

## CCC(COc1ncnc2ccccc12)c1ccc(-c2ccccc2)cc1 (centres unmarked) [Example 142, 4-[2-(1,1'-biphenyl)-4-ylbutoxy]quinazoline]
[1]
  LEAF RUST: + (+ = 20-89% control at 400 ppm)
[2]
  mortality at 24 ppm: 0%
[3]
  DOWN MDEW: - (- = 0-19% control at 400 ppm)
[4]
  mortality at 400 ppm: 60%
[5]
  GRAY MOLD: - (- = 0-19% control at 400 ppm)
[6]
  POWD MDEW: + (+ = 20-89% control at 400 ppm)
[7]
  RICE BLAST: ++ (++ = 90-100% control at 400 ppm)
[8]
  mortality at 400 ppm: 30%
[9]
  mortality at 400 ppm: 0%

## CC(C)(C)c1ccc(CCOc2nc(C(Cl)(Cl)Cl)nc3ccccc23)cc1 [Example 172, 2-(trichloromethyl)-4-[2-[4-(t-butyl)phenyl]ethoxy]quinazoline]
[1]
  LEAF RUST: - (- = 0-19% control at 400 ppm)
[2]
  mortality at 12 ppm: 100%
  mortality at 24 ppm: 0%
[3]
  DOWN MDEW: - (- = 0-19% control at 400 ppm)
[4]
  mortality at 200 ppm: 0%
  mortality at 400 ppm: 0%
[5]
  GRAY MOLD: - (- = 0-19% control at 400 ppm)
[6]
  POWD MDEW: - (- = 0-19% control at 400 ppm)
[7]
  RICE BLAST: - (- = 0-19% control at 400 ppm)
[8]
  mortality at 200 ppm: 40%
  mortality at 400 ppm: 0%
[9]
  mortality at 200 ppm: 0%
  mortality at 400 ppm: 0%

## CC(C)Cc1ccc(C(C)COc2ncnc3ccccc23)cc1 (centres unmarked) [Example 167, 4-[2-[4-(2-methylpropyl)phenyl]propoxy]quinazoline]
[1]
  LEAF RUST: + (+ = 20-89% control at 400 ppm)
[2]
  mortality at 12 ppm: 0%
  mortality at 24 ppm: 0%
[3]
  DOWN MDEW: - (- = 0-19% control at 400 ppm)
[4]
  mortality at 200 ppm: 90%
  mortality at 400 ppm: 80%
[5]
  GRAY MOLD: - (- = 0-19% control at 400 ppm)
[6]
  POWD MDEW: + (+ = 20-89% control at 400 ppm)
[7]
  RICE BLAST: +++ (+++ = 90-100% control at 100 ppm)
[8]
  mortality at 200 ppm: 90%
  mortality at 400 ppm: 80%
[9]
  mortality at 200 ppm: 0%
  mortality at 400 ppm: 0%

## CCCCOc1ccc(CCOc2ncnc3ccccc23)cc1 [Example 180, 4-[2-(4-butoxyphenyl)ethoxy]quinazoline]
[1]
  LEAF RUST: +++ (+++ = 90-100% control at 100 ppm)
[2]
  mortality at 12 ppm: 0%
  mortality at 24 ppm: 0%
[3]
  DOWN MDEW: +++ (+++ = 90-100% control at 100 ppm)
[4]
  mortality at 200 ppm: 80%
  mortality at 400 ppm: 100%
[5]
  GRAY MOLD: - (- = 0-19% control at 400 ppm)
[6]
  POWD MDEW: +++ (+++ = 90-100% control at 100 ppm)
[7]
  RICE BLAST: +++ (+++ = 90-100% control at 100 ppm)
[8]
  mortality at 200 ppm: 50%
  mortality at 400 ppm: 100%
[9]
  mortality at 200 ppm: 0%
  mortality at 400 ppm: 100%

## CC(COc1ncnc2ccccc12)c1ccc(-c2ccccc2)cc1 (centres unmarked) [Example 187, 4-[2-(1,1'-biphenyl)-4-ylpropoxy]quinazoline]
[1]
  LEAF RUST: + (+ = 20-89% control at 400 ppm)
[2]
  mortality at 12 ppm: 0%
  mortality at 24 ppm: 0%
[3]
  DOWN MDEW: + (+ = 20-89% control at 400 ppm)
[4]
  mortality at 200 ppm: 0%
  mortality at 400 ppm: 0%
[5]
  GRAY MOLD: - (- = 0-19% control at 400 ppm)
[6]
  POWD MDEW: - (- = 0-19% control at 400 ppm)
[7]
  RICE BLAST: +++ (+++ = 90-100% control at 100 ppm)
[8]
  mortality at 200 ppm: 0%
  mortality at 400 ppm: 0%
[9]
  mortality at 200 ppm: 0%
  mortality at 400 ppm: 0%

## Fc1cccc2c(OCCc3cccc4ccccc34)ncnc12 [Example 141, 8-fluoro-4-[2-(1-naphthalenyl)ethoxy]quinazoline]
[1]
  LEAF RUST: + (+ = 20-89% control at 400 ppm)
[2]
  mortality at 24 ppm: 0%
[3]
  DOWN MDEW: + (+ = 20-89% control at 400 ppm)
[4]
  mortality at 400 ppm: 0%
[5]
  GRAY MOLD: - (- = 0-19% control at 400 ppm)
[6]
  POWD MDEW: + (+ = 20-89% control at 400 ppm)
[7]
  RICE BLAST: + (+ = 20-89% control at 400 ppm)
[8]
  mortality at 400 ppm: 0%
[9]
  mortality at 400 ppm: 0%

## FC(F)(F)c1cc(CCOc2ncnc3ccccc23)cc(C(F)(F)F)c1 [Example 128, 4-[2-[3,5-di(trifluoromethyl)phenyl]ethoxy]quinazoline]
[1]
  LEAF RUST: + (+ = 20-89% control at 400 ppm)
[2]
  mortality at 12 ppm: 0%
  mortality at 24 ppm: 0%
[3]
  DOWN MDEW: + (+ = 20-89% control at 400 ppm)
[4]
  mortality at 200 ppm: 0%
  mortality at 400 ppm: 0%
[5]
  GRAY MOLD: - (- = 0-19% control at 400 ppm)
[6]
  POWD MDEW: ++ (++ = 90-100% control at 400 ppm)
[7]
  RICE BLAST: + (+ = 20-89% control at 400 ppm)
[8]
  mortality at 200 ppm: 0%
  mortality at 400 ppm: 0%
[9]
  mortality at 200 ppm: 0%
  mortality at 400 ppm: 0%

## CC(C)C(COc1ncnc2ccccc12)c1ccccc1 (centres unmarked) [Example 165, 4-(3-methyl-2-phenylbutoxy)quinazoline]
[1]
  LEAF RUST: ++ (++ = 90-100% control at 400 ppm)
[2]
  mortality at 12 ppm: 0%
  mortality at 24 ppm: 0%
[3]
  DOWN MDEW: ++ (++ = 90-100% control at 400 ppm)
[4]
  mortality at 200 ppm: 0%
  mortality at 400 ppm: 0%
[5]
  GRAY MOLD: - (- = 0-19% control at 400 ppm)
[6]
  POWD MDEW: ++ (++ = 90-100% control at 400 ppm)
[7]
  RICE BLAST: ++ (++ = 90-100% control at 400 ppm)
[8]
  mortality at 200 ppm: 50%
  mortality at 400 ppm: 80%
[9]
  mortality at 200 ppm: 0%
  mortality at 400 ppm: 0%
